O=C(O)CCCC(=O)O
Conditions | solubility (mole fraction)
in cyclohexanone, 294.15 K | 0.153
in cyclohexanone, 298.45 K | 0.167
in cyclohexanone, 302.45 K | 0.181
in cyclohexanone, 307.15 K | 0.2
in cyclohexanone, 312.45 K | 0.238
in cyclohexanone, 317.05 K | 0.27
in cyclohexanone, 321.75 K | 0.309
in cyclohexanone, 326.35 K | 0.351
in cyclohexanone, 331.55 K | 0.401
in cyclohexanone, 335.25 K | 0.437
in propionic acid, 289.55 K | 0.238
in propionic acid, 294.15 K | 0.272
in propionic acid, 302.15 K | 0.337
in propionic acid, 305.65 K | 0.365
in propionic acid, 309.15 K | 0.395
in propionic acid, 312.85 K | 0.42
in propionic acid, 316.15 K | 0.447
in propionic acid, 319.65 K | 0.474
in propionic acid, 323.65 K | 0.509
in propionic acid, 332.15 K | 0.587
in ε-caprolactone, 286.25 K | 0.124
in ε-caprolactone, 291.55 K | 0.153
in ε-caprolactone, 296.15 K | 0.183
in ε-caprolactone, 300.25 K | 0.214
in ε-caprolactone, 304.45 K | 0.245
in ε-caprolactone, 308.55 K | 0.274
in ε-caprolactone, 312.45 K | 0.304
in ε-caprolactone, 316.05 K | 0.334
in ε-caprolactone, 320.25 K | 0.364
in ε-caprolactone, 325.25 K | 0.402

From BigSolDB 2.1
